# Like-named read-outs stand apart in the source and are kept apart here.
# What was measured:
# [1] = target: T1, brain AChE (rat cortex homogenate) (Rattus norvegicus, UniProt P37136); experiment: biochemical
# T1 construct: homogenate was used as the resource of AChE; from tissue; host or cells: rat cortex homogenate
# T1 sequence (P37136 32-614): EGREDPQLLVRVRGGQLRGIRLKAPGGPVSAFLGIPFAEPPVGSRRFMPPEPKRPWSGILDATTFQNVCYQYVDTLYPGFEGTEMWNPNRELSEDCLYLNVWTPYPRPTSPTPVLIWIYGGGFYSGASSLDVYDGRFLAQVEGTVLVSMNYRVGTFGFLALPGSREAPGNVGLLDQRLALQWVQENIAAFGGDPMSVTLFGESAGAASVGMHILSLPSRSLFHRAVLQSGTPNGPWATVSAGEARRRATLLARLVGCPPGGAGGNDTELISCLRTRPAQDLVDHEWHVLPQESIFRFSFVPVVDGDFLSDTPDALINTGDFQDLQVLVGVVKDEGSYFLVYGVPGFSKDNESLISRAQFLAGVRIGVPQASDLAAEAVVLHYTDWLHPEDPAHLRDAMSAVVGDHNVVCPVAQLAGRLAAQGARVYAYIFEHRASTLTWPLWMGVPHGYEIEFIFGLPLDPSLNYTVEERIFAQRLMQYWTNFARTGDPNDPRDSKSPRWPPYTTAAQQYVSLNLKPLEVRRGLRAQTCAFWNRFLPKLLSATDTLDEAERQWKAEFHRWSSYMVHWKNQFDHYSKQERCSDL
# Procedure: The ability of target compounds PS(1–10) to inhibit AChE was evaluated by the slightly modified Ellman’s method. The objective of attaching different amines to the 1,3-diphenylprop-2-enone skeleton via an ethoxy spacer was to enhance the interaction of the designed synthesized chalcones with both the PAS and CAS of AChE.
# The inhibitory potential of synthesized compounds was evaluated for brain AChE by the widely used Ellman et al. process. The method involved using spectroscopic investigation at 450 nm. All the compounds with different concentrations were evaluated in triplicate including donepezil (standard AChE inhibitor).
# In vitro inhibition of AChE
# The inhibitory potency of target compounds on AChE was determined using spectroscopic […]
# homogenate was used as the resource of AChE. For assay of AChE activity, a reaction mixture containing 100μl acetylthiocholine iodide 0.075M/L, 100μl sodium phosphate buffer (0.1M/L, pH 7.4), 20μl homogenate or serum and different concentrations of test compounds 20μl was incubated at 37° C for 15 min. The reaction was terminated by adding 50μl 3% sodium lauryl sulfate, then, 50μl, 0.2% of 5,5’–dithio-bis- (2-nitrobenzoic acid) (DTNB, 10 mg DTNB in 100 mL of Sorenson phosphate buffer, pH 8.0) was added to produce the yellow anion of 5-thio-2-nitro-benzoic acid. Assays were carried out with a blank containing all components except AChE in order to account for non-enzymatic reaction. The values of IC 50 were calculated by UV spectroscopy from the absorbance changes at 450 nm. A positive control of donepezil was used in the same range of concentrations. Each concentration was analyzed in triplicate. Data from concentration–inhibition experiments of the inhibitors were calculated by nonlinear regression analysis, using the GraphPad Prism 5 program. […]
# [2] = Free radical scavenging activity (DPPH, Blois method); conditions: n = 3, read-out: Radical Scavenging Activity (EC50, Mean ± SD)
# Procedure: The activity was tested using the spectrophotometric Blois method.
# Radical scavenging activity (DPPH Method)
# The stable 1, 1-diphenyl-2-picryl hydrazyl radical (DPPH) was used for determination of free radical-scavenging activity of the test compounds. The 0.1 mM solution of DPPH in methanol (39.4 mg in 1000 ml) was freshly prepared. Different concentrations of test compounds were added with an equal volume to methanol solution of DPPH. After 30 min at room temperature, the absorbance was recorded at 517 nm. Ascorbic acid was used as standard. IC50 values denote the concentration of sample, which is required to scavenge 50% of DPPH free radicals. IC50 value was determined from the plotted graph of scavenging activity against the different concentrations of test compounds. Ascorbic acid was applied as positive drug (Blois, 1958).
# AGE formation = AGE formation inhibitory activity (glucose-mediated protein glycation of BSA, spectrofluorometric); assay type: biochemical; conditions: n = 3, 60°C, 24 h, read-out: AGE Inhibitory Activity (IC50, Mean ± SD)
# Procedure: The compound PS10 with 4-methylpiperazine had better anti-glycating effects compared to the unsubstituted piperazine compound (PS6). […]
# The synthesized compounds were assayed by the spectrofluorometric method for inhibition of glucose-mediated protein glycation. All the compounds and aminoguanidine (positive control) with different concentrations were evaluated in triplicate. […]
# In vitro advanced glycation end-product (AGEs) formation inhibitory activity The assay for the ability of the synthesized compounds to inhibit the glucose-mediated protein glycation and the development of ﬂuorescent AGEs was performed. Different concentrations of various compounds were prepared by dissolving in DMSO. Anti-glycation assay was performed according to the methods reported by Matsuura and colleagues with slight modification. In all experiments, about 500 µl of Bovine serum albumin (1mg/ml final concentration) was incubated with 400 µl of glucose (500 mM) in the presence of 100 µl of test compounds, aminoguanidine or PBS as control buffer at different concentrations, The reaction was allowed to proceed at 60°C for 24hrs and thereafter reaction was stopped by adding 10 µl of 100% (w/v) trichloroacetic acid (TCA). Then the mixture was kept at 4°C for 10 min before subjected to centrifugation at 15,000 rpm. The precipitate was redissolved in 1ml alkaline PBS (pH10) and immediately quantified for relative amount of glycated BSA based on fluorescence intensity by spectrofluorometer LS-55 (Perkin Elmer) at 370 nm (excitation) and 440 nm (emission). Aminoguanidine was used as a positive control. Percentage inhibition was calculated. All experiments were performed in triplicate.
# [3] = test system: STZ-induced cognitive impairment in rats; experiment: Morris Water Maze in STZ-induced dementia; assay type: in vivo, Wistar rats; conditions: STZ i.c.v. 3 mg/kg rats; PS10 2, 5, 10 mg/kg p.o., day 9 to 22
# Procedure: The STZ model (i.c.v., 3 mg/kg) is commonly used to study AD in animals. The intracerebroventricular injection of STZ, at two sub-diabetogenic doses, induces a range of symptoms including impaired cognition, metabolic and molecular changes, and neuropathological symptoms in rodents which are often found in AD subjects. […] The ROS produced can cause damage to the myelin sheath and acetyl coenzyme-A in the hippocampus. As a result, there is an increase in AChE activity, leading to behavioral disturbances, as in Alzheimer’s disease. Thus, this model is frequently used for AD interventions.
# MWM is the most commonly used method to measure learning and spatial memory in rats. MWM utilizes the natural swimming ability of rats. As a result, during the retrieval phase, there is no induced stress that could affect the results. The MWM model is commonly used to test drugs that enhance memory and provide neuroprotection. Thus, it has been used to understand the effect of PS10 on the memory of animals with induced cognitive impairment by means of restoring the ELT.
# To induce cognitive impairment in rats, solutions of Streptozotocin (STZ, 3 mg/kg) in artificial cerebro-spinal fluid (ACSF) were given as i.c.v. (intracerebroventricular) injections. The STZ injections were administered bilaterally on days 1 and 3 of the experimental protocol. […]
# [4] = test system: brain GSH and TBARS levels; experiment: Brain oxidative stress markers (GSH, TBARS) in STZ-treated rats; assay type: in vivo, Wistar rats; conditions: STZ i.c.v. rats; PS10 2, 5, 10 mg/kg p.o.
# Source text: Another crucial factor that contributes to the progression of AD is oxidative stress. The brain is more vulnerable to oxidative damage compared to other organs due to its high energy demand, relatively lower level of antioxidant defense mechanisms, and high concentration of polyunsaturated fatty acids. STZ injection generates free radicals that overwhelm the brain’s defensive antioxidant system (GSH) and cause lipid membrane oxidation, leading to the production of malondialdehyde. Thus, in order to analyze the antioxidant property of PS10, the levels of TBARS and GSH were measured in the current investigation (Figure 6).
# (§1) Groups IV, V, and VI (STZ + PS10): Following intracerebroventricular injections of STZ, animal groups were administered different doses of PS10 (2, 5, and 10 mg/kg, p.o., respectively), from 9 to 22 days.
# (§2) After the behavioral experiment was completed, the rats were euthanized under mild anesthesia using cervical dislocation, and their brains were extracted. The homogenates were made in a buffer (pH 7.4) for further analysis. AChE activity, total protein levels, reduced GSH levels, and thiobarbituric acid reactive species (TBARS) levels were measured using the brain homogenates.
# brain AChE = target: T2, brain AChE (Rattus norvegicus, UniProt P37136); experiment: Brain AChE activity in STZ-treated rats (brain homogenate); assay type: in vivo; conditions: STZ i.c.v. rats; PS10 2, 5, 10 mg/kg p.o.
# T2 construct: from tissue; host or cells: brain homogenate of STZ-treated Wistar rats
# T2 sequence (P37136 32-614): T1 sequence (P37136 32-614)
# Source text: The central cholinergic system is critical for cognitive function, and AD patients often suffer from cholinergic hypofunction due to increased AChE activity and the degeneration of cholinergic neurons. Animal studies have shown that the administration of STZ (i.c.v) increases brain AChE activity, which leads to cognitive impairment and memory deficits. […]. Possibly, due to these interactions between PS10 and amino acids of AChE, PS10 was able to inhibit AChE activity.
# as §1, §2
# [5] = n = 3, rat cortex homogenate, read-out: AChE Inhibitory Activity (IC50, Mean ± SD)
structure (smiles),measurement,setting,value
"O=C(C=Cc1ccc(OCCN2CCCC2)cc1)c1ccccc1 [PS8, 1-Phenyl-3-(4-(2-(pyrrolidin-1-yl)ethoxy)phenyl)prop-2-en-1-one]",IC50,[1]; [5],0.03272 ± 0.00012 µM
same,EC50,[2],0.04864 ± 0.00018 µM
same,IC50,AGE formation,65.41 ± 0.36 µM
"O=C(C=Cc1ccc(OCCn2ccnc2)cc1)c1ccccc1 [PS9, 3-(4-(2-(1H-Imidazol-1-yl)ethoxy)phenyl)-1-phenylprop-2-en-1-one]",IC50,[1]; [5],0.0263 ± 0.0003 µM
same,EC50,[2],0.04858 ± 0.00042 µM
same,IC50,AGE formation,65.7 ± 0.17 µM
"O=C(C=Cc1ccc(O)cc1)c1ccccc1 [PS1, 3-(4-Hydroxyphenyl)-1-phenylprop-2-en-1-one]",IC50,[1],0.0365 ± 0.00042 µM
same,EC50,[2],0.0224 ± 0.0004 µM
same,IC50,AGE formation,43.6 ± 0.08 µM
"CN(CCOc1ccc(C=CC(=O)c2ccccc2)cc1)Cc1ccccc1 [PS4, 3-(4-(2-(Benzyl(methyl)amino)ethoxy)phenyl)-1-phenylprop-2-en-1-one]",IC50,[1]; [5],0.0488 ± 4e-05 µM
same,EC50,[2],0.04948 ± 0.00021 µM
same,IC50,AGE formation,69.39 ± 0.2 µM
"O=C(C=Cc1ccc(OCCN2CCNCC2)cc1)c1ccccc1 [PS6, 1-Phenyl-3-(4-(2-(piperazin-1-yl)ethoxy)phenyl)prop-2-en-1-one]",IC50,[1]; [5],0.0214 ± 0.0008 µM
same,EC50,[2],0.0467 ± 0.00024 µM
same,IC50,AGE formation,64.51 ± 0.2 µM
"O=C(C=Cc1ccc(OCCN2CCCCC2)cc1)c1ccccc1 [PS5, 1-Phenyl-3-(4-(2-(piperidin-1-yl)ethoxy)phenyl)prop-2-en-1-one]",IC50,[1]; [5],0.0197 ± 0.0003 µM
same,EC50,[2],0.0344 ± 0.0004 µM
same,IC50,AGE formation,55.3 ± 0.2 µM
"O=C1O[C@H]([C@@H](O)CO)C(O)=C1O [Ascorbic acid, reference compound]",EC50,[2],0.0217 ± 8e-05 µM
"CN1CCN(CCOc2ccc(C=CC(=O)c3ccccc3)cc2)CC1 [PS10, 3-(4-(2-(p-Methylpiperazin-1-yl)ethoxy)phenyl)-1-phenylprop-2-en-1-one]",IC50,[1]; [5],0.0153 ± 0.00072 µM
same,EC50,[2],0.02283 ± 0.0002 µM
same,ELT (escape latency time) in MWM,[3],significantly decreased STZ-induced cognitive impairment
same,TSTQ (time spent in target quadrant) in MWM,[3],significantly decreased STZ-induced cognitive impairment
same,IC50,AGE formation,49.85 ± 0.13 µM
same,brain GSH level,[4],reversed
same,brain TBARS levels,[4],reversed
same,brain AChE activity,brain AChE,restored
"CCN(CC)CCOc1ccc(C=CC(=O)c2ccccc2)cc1 [PS3, 3-(4-(2-(Diethylamino)ethoxy)phenyl)-1-phenylprop-2-en-1-one]",IC50,[1]; [5],0.0475 ± 0.00021 µM
same,EC50,[2],0.04941 ± 0.00022 µM
same,IC50,AGE formation,67.3 ± 0.33 µM
"O=C(C=Cc1ccc(OCCN2CCOCC2)cc1)c1ccccc1 [PS7, 3-(4-(2-Morpholinoethoxy)phenyl)-1-phenylprop-2-en-1-one]",IC50,[1]; [5],0.02272 ± 0.00013 µM
same,EC50,[2],0.03765 ± 0.00024 µM
same,IC50,AGE formation,51.2 ± 0.8 µM
"CN(C)CCOc1ccc(C=CC(=O)c2ccccc2)cc1 [PS2, 3-(4-(2-(Dimethylamino)ethoxy)phenyl)-1-phenylprop-2-en-1-one]",IC50,[1]; [5],0.05251 ± 0.0002 µM
same,EC50,[2],0.04985 ± 0.00011 µM
same,IC50,AGE formation,68.6 ± 0.23 µM
"N=C(N)NN [Aminoguanidine (AG), Aminoguanidine, reference compound]",IC50,AGE formation,44.3 ± 0.12 µM
